Legend:
rats [1] = assay: MES screen after oral administration to rats; settings: oral administration to rats; for MES screen ED50: time t (h) per compound as in the table
mice [2] = settings: intraperitoneal injection in mice; time t (h) per compound as in the table
mice [3] = settings: intraperitoneal injection in mice; time t (h) per compound as in the table; remark: listed apart in the source
mice [4] = assay: MES screen after intraperitoneal injection in mice; format: in vivo; settings: intraperitoneal injection in mice; time t (h) per compound as in the table
rats [5] = assay: neurotoxicity screen after oral administration to rats; settings: oral administration to rats; time t (h) per compound as in the table

## NC(=O)NN=Cc1ccc(Oc2ccc(Cl)cc2)cc1 [Compound 4c]
Rats [1]; dose 50 mg/kg, 0.25 h
  MES screen 0.25 h: number of rats out of 4 which were protected: 4
Rats [1]; dose 50 mg/kg, 0.5 h
  MES screen 0.5 h: number of rats out of 4 which were protected: 4
Rats [1]; dose 50 mg/kg, 1 h
  MES screen 1 h: number of rats out of 4 which were protected: 4
Rats [1]; dose 50 mg/kg, 2 h
  MES screen 2 h: number of rats out of 4 which were protected: 4
Rats [1]; dose 50 mg/kg, 4 h
  MES screen 4 h: number of rats out of 4 which were protected: 4

## CC(=NNC(N)=O)c1ccccc1Oc1ccc(F)cc1 [Compound 14b]
Rats [1]; dose 30 mg/kg, 0.25 h
  MES screen: number of rats out of 4 which were protected: 1
Rats [1]; dose 30 mg/kg, 0.5 h
  MES screen: number of rats out of 4 which were protected: 1
Rats [1]; dose 30 mg/kg, 1 h
  MES screen: number of rats out of 4 which were protected: 3
Rats [1]; dose 30 mg/kg, 2 h
  MES screen: number of rats out of 4 which were protected: 3
Rats [1]; dose 30 mg/kg, 4 h
  MES screen: number of rats out of 4 which were protected: 2
Rats [1]
  MES screen ED50: 43.37 mg/kg

## CCC(=NNC(N)=O)c1ccc(Oc2ccccc2)cc1 [Compound 13e]
Rats [1]; dose 30 mg/kg, 0.25 h
  MES screen: number of rats out of 4 which were protected: 1
Rats [1]; dose 30 mg/kg, 0.5 h
  MES screen: number of rats out of 4 which were protected: 4
Rats [1]; dose 30 mg/kg, 1 h
  MES screen: number of rats out of 4 which were protected: 3
Rats [1]; dose 30 mg/kg, 2 h
  MES screen: number of rats out of 4 which were protected: 3
Rats [1]
  MES screen ED50: 23.08 mg/kg

## NC(=O)NN=Cc1ccc(Oc2ccc(F)cc2Br)cc1 [Compound 5m]
Rats [1]; dose 50 mg/kg, 0.25 h
  MES screen 0.25 h: number of rats out of 4 which were protected: 4
Rats [1]; dose 50 mg/kg, 0.5 h
  MES screen 0.5 h: number of rats out of 4 which were protected: 4
Rats [1]; dose 50 mg/kg, 1 h
  MES screen 1 h: number of rats out of 4 which were protected: 4
Rats [1]; dose 50 mg/kg, 2 h
  MES screen 2 h: number of rats out of 4 which were protected: 4
Rats [1]; dose 50 mg/kg, 4 h
  MES screen 4 h: number of rats out of 4 which were protected: 4

## CCC(=NNC(N)=O)c1ccc(Oc2ccc(F)cc2)cc1 [Compound 13f]
Mice [2]
  neurotoxicity screen TD50: 35.26 mg/kg
Rats [1]; dose 12.5 mg/kg, 0.5 h
  MES screen: number of rats out of 4 which were protected: 2
Rats [1]; dose 12.5 mg/kg, 1 h
  MES screen: number of rats out of 4 which were protected: 4
Rats [1]; dose 12.5 mg/kg, 2 h
  MES screen: number of rats out of 4 which were protected: 4
Rats [1]; dose 12.5 mg/kg, 4 h
  MES screen: number of rats out of 4 which were protected: 4
Rats [1]
  MES screen ED50: 4.25 mg/kg
Mice [3]
  acPTZ screen ED50: 12.84 mg/kg
Mice [4]
  MES screen ED50: 5.46 mg/kg

## CCC(=NNC(N)=O)c1ccc(Oc2ccc(Br)cc2)cc1 [Compound 13h]
Rats [1]; dose 12.5 mg/kg, 0.5 h
  MES screen: number of rats out of 4 which were protected: 2
Rats [1]; dose 12.5 mg/kg, 1 h
  MES screen: number of rats out of 4 which were protected: 4
Rats [1]; dose 12.5 mg/kg, 2 h
  MES screen: number of rats out of 4 which were protected: 4
Rats [1]; dose 12.5 mg/kg, 4 h
  MES screen: number of rats out of 4 which were protected: 4
Rats [1]
  MES screen ED50: 4.39 mg/kg

## COc1ccc(Oc2ccc(C=NNC(N)=O)cc2)cc1 [Compound 4h]
Rats [1]; dose 50 mg/kg, 0.5 h
  MES screen 0.5 h: number of rats out of 4 which were protected: 4
Rats [1]; dose 50 mg/kg, 1 h
  MES screen 1 h: number of rats out of 4 which were protected: 4
Rats [1]; dose 50 mg/kg, 2 h
  MES screen 2 h: number of rats out of 4 which were protected: 4
Rats [1]; dose 50 mg/kg, 4 h
  MES screen 4 h: number of rats out of 4 which were protected: 4

## NC(=O)NN=Cc1ccc(OS(=O)(=O)c2ccccc2)cc1 [Compound 15f]
Mice [2]
  neurotoxicity screen TD50: 113.00 mg/kg
Rats [1]; dose 12.5 mg/kg, 0.25 h
  MES screen: number of rats out of 4 which were protected: 1
Rats [1]; dose 12.5 mg/kg, 0.5 h
  MES screen: number of rats out of 4 which were protected: 2
Rats [1]; dose 12.5 mg/kg, 1 h
  MES screen: number of rats out of 4 which were protected: 2
Rats [1]; dose 12.5 mg/kg, 2 h
  MES screen: number of rats out of 4 which were protected: 4
Rats [1]; dose 12.5 mg/kg, 4 h
  MES screen: number of rats out of 4 which were protected: 3
Mice [3]
  acPTZ screen ED50: >100 mg/kg
Mice [4]
  MES screen ED50: 25.27 mg/kg

## CC(=NNC(N)=O)c1ccc(Oc2ccc(Br)cc2)cc1 [Compound 13d]
Rats [1]; dose 12.5 mg/kg, 0.25 h
  MES screen: number of rats out of 4 which were protected: 1
Rats [1]; dose 12.5 mg/kg, 0.5 h
  MES screen: number of rats out of 4 which were protected: 3
Rats [1]; dose 12.5 mg/kg, 1 h
  MES screen: number of rats out of 4 which were protected: 4
Rats [1]; dose 12.5 mg/kg, 2 h
  MES screen: number of rats out of 4 which were protected: 4
Rats [1]; dose 12.5 mg/kg, 4 h
  MES screen: number of rats out of 4 which were protected: 4
Rats [1]
  MES screen ED50: 1.52 mg/kg
Rats [5]
  neurotoxicity screen TD50: >500 mg/kg

## N#Cc1ccc(Oc2ccc(C=NNC(N)=O)cc2)cc1 [Compound 4j]
Rats [1]; dose 12.5 mg/kg, 0.25 h
  MES screen 0.25 h: number of rats out of 4 which were protected: 2
Rats [1]; dose 12.5 mg/kg, 0.5 h
  MES screen 0.5 h: number of rats out of 4 which were protected: 4
Rats [1]; dose 12.5 mg/kg, 1 h
  MES screen 1 h: number of rats out of 4 which were protected: 4
Rats [1]; dose 12.5 mg/kg, 2 h
  MES screen 2 h: number of rats out of 4 which were protected: 4
Rats [1]; dose 12.5 mg/kg, 4 h
  MES screen 4 h: number of rats out of 4 which were protected: 4

## CC(=NNC(N)=O)c1ccc(Oc2ccc(Cl)cc2)cc1 [Compound 13c]
Rats [1]; dose 30 mg/kg, 0.25 h
  MES screen: number of rats out of 4 which were protected: 3
Rats [1]; dose 30 mg/kg, 0.5 h
  MES screen: number of rats out of 4 which were protected: 4
Rats [1]; dose 30 mg/kg, 1 h
  MES screen: number of rats out of 4 which were protected: 4
Rats [1]; dose 30 mg/kg, 2 h
  MES screen: number of rats out of 4 which were protected: 4
Rats [1]; dose 30 mg/kg, 4 h
  MES screen: number of rats out of 4 which were protected: 4
Rats [1]
  MES screen ED50: 2.92 mg/kg
Rats [5]
  neurotoxicity screen TD50: <500 mg/kg

## NC(=O)NN=Cc1ccc(OCc2ccccc2)cc1 [15d]
Rats [1]; dose 12.5 mg/kg, 1 h
  MES screen: number of rats out of 4 which were protected: 1
Rats [1]; dose 12.5 mg/kg, 2 h
  MES screen: number of rats out of 4 which were protected: 1

## CCc1ccc(Oc2ccc(C=NNC(N)=O)cc2)cc1 [Compound 5p]
Rats [1]; dose 12.5 mg/kg, 0.5 h
  MES screen 0.5 h: number of rats out of 4 which were protected: 2
Rats [1]; dose 12.5 mg/kg, 1 h
  MES screen 1 h: number of rats out of 4 which were protected: 4
Rats [1]; dose 12.5 mg/kg, 2 h
  MES screen 2 h: number of rats out of 4 which were protected: 4
Rats [1]; dose 12.5 mg/kg, 4 h
  MES screen 4 h: number of rats out of 4 which were protected: 4
Rats [1]
  MES screen ED50: 6.48 mg/kg

Source: patent USRE38425E1, “Semicarbazones having CNS activity and pharmaceutical preparations containing same” (University of Saskatchewan Technologies, Inc., priority 1995, dated 2004)
